Results: PMC7417771, “Thiol-ene Enabled Chemical Synthesis of Truncated S-Lipidated Teixobactin Analogs” (Frontiers in Chemistry, 2020)
In brackets after ≈: the same amount, converted by molar mass. Where two headings read alike, the source gives them in different places. Positions of bridges follow the written chain, without caps; N, C: chain ends. Non-standard residues stand in square brackets, D forms with d. Residues, ends and D or L forms follow the SMILES beside them. *: point of attachment. Ethyl(2-palmitoyloxy) = CCCCCCCCCCCCCCCC(=O)OCC*; Ethyl(2-butanoyloxy) = CCCC(=O)OCC*; Ethyl(2-OBz) = O=C(OCC*)c1ccccc1; Lauroyl = CCCCCCCCCCCC(=O)*; X1 = CCCCCCCCCCCC(=O)OCC*; X3 = CCCCCCCC(=O)OCC*; X2 = CCCCCC(=O)OCC*; Mpa = O=C(O)CCS

How the values were obtained:
[1] = test system: Gram-positive bacterial species; settings: range over species, ref Yang H. et al., 2016, cited from earlier work
Description: Despite this substitution, the L-Arg^10-teixobactin analog maintained excellent, albeit reduced potency, with MIC values ranging 1–4 μg/mL across a number of Gram-positive bacterial species (Yang H. et al., [2016]; Zong et al., [2018]). The rationale for this substitution being that the positive charge from the guanidinium group was the moiety responsible for eliciting antibacterial activity.

[2] = test system: S. epidermidis ATCC 14990; settings: cited from earlier work; for MIC (S. epidermidis): Figure 1, ref Yang H. et al. (2016), Girt et al. (2018), Zong et al. (2018)
Description: Figure 1 Structures of teixobactin 1 and teixobactin analogs; Arg^10-teixobactin 2, lipobactin 3, and Lys^10-farnesylbactin 4. Examples of most relevant MICs from the literature are shown above each structure. Yang H. et al. ([2016]), Girt et al. ([2018]), Zong et al. ([2018]) The End^10, Arg^10 and Lys^10 substitutions (red) and the lipid moieties of lipobactin 3 and farnesylbactin 4 (blue) are highlighted. […] Lipobactin 3 was prepared using Fmoc-SPPS as described by the Nowick group (Yang H. et al., [2016]) and purified to 95% (Yang H. et al., [2016]). […] Despite the distinct similarity to lipobactin 3, in which hydrophobic residues 1–5 of teixobactin are also replaced with ...

[3] = test system: Staphylococcus aureus ATCC 29213; format: cell-based
Description: (§1) Microwave irradiated reactions were performed in a CEM (Matthews, NC) Discover SP, Model 908010 reactor. Dibenzofulvene measurements for the Fmoc release assay was performed in a Shimadzu (Kyoto, Japan) UV-1280 spectrophotometer at 290 nm. Analytical RP-HPLC was used to analyse final compounds and performed on a Dionex (Sunnyvale, CA) UltiMate 3000 system using a Waters (Milford, MA) Xterra MS C18 (5 μm 4.6 × 150 mm) column, and Chromeleon software was used for data processing. Buffer A: 0.1% (v/v) TFA in H2O; buffer B: 0.1% (v/v) TFA in MeCN. LC-MS was performed on an Agilent (Santa Clara, CA) 1260 Infinity with UV absorbance at λ = 214 nm equipped with an Agilent 6120 Quadrupole LC-MS using an Agilent Zorbax 300SB-C3 column (3.5 μm, 3.0 × 150 mm) column with a linear gradient of 5 – 95% B (ca. 3% B/min) at r.t., with a flow rate of 0.3 mL/min. Data processing was carried out by Agilent OpenLAB software. Buffer A: 0.1% (v/v) formic acid in H2O; buffer B: 0.1% (v/v) formic acid in MeCN. Crude peptides were purified on Dionex UltiMate 3000 preparative HPLC using Agilent Zorbax 300SB-C18 column (5 μm, 9.4 × 250 mm) and Chromeleon software was used for data processing. Ultraviolet irradiation was carried out using Spectroline (Westbury, NY) hand-held lamp EA-160/FA, 6W integrally filtered tube at 50 Hz, 0.17 A and λ = 365 nm. Biological assays were carried out inside a Thermo Fisher (Waltham, MA) HERAsafe KSP 12 biological safety cabinet on 96-well plates obtained from MediRay (Auckland, New Zealand). Mueller Hinton (MH) broth and Staphylococcus aureus ATCC 29213 was obtained from Thermo Fisher. Media and bacteria were incubated in N-Biotek (Geyonggi, South Korea) NB205L shaker.
Staphylococcus aureus ATCC 29213 was grown in non-cation adjusted Mueller Hinton (MH) broth at 37 °C with shaking (200 rpm). […] Overnight cultures of bacteria were diluted in fresh MH before adding 50 µL of inoculum to each well of the MIC plate, to achieve a final volume of 100 µL with a uniform CFU/ml of ~5 x10^5 in each well. Plates were incubated at 37 °C with shaking for 24 h before determining the MIC.

[4] = Analytical RP-HPLC retention time as measure of hydrophobicity; format: physicochemical; settings: for RP-HPLC column retention time tR: chromatographic, analytical RP-HPLC, Waters Xterra MS C18 5 μm 4.6 × 150 mm, buffer A 0.1% TFA in H2O, buffer B 0.1% TFA in MeCN, used as measure of hydrophobicity; for Δt, retention time difference to lipobactin 3: tR of the compound minus tR of 3, same RP-HPLC C18 system; for Hydrophobicity relative to lipobactin 3 as judged by RP-HPLC retention time: in words
Description: We evaluated the antibiotic activity of the analogs 8a–8f against S. aureus using lipobactin 3 as a reference compound. Lipobactin 3 was prepared using Fmoc-SPPS as described by the Nowick group (Yang H. et al., [2016]) and purified to 95% (Yang H. et al., [2016]). […] To examine the reasons for the lack of bioactivity, the hydrophobicity of the S-lipidated teixobactin analogs as a function of lipid tail length were examined by analyses of their RP-HPLC retention times and compared to that of lipobactin 3 (Table 1).
as §1

[5] = test system: methicillin-resistant Staphylococcus aureus (MRSA); settings: cited from earlier work
Text: Nature has historically been the primary source of medicinally important antibiotics (Moloney, [2016]). By screening soil microorganisms, Ling et al. discovered the novel antimicrobial peptide (AMP) teixobactin (1, Figure 1), isolated from bacterium Eleftheria terrae (Ling et al., [2015]). […] Crucially, resistance in S. aureus was not induced by exposure to sub-lethal doses of teixobactin. The lack of resistance wa ... || Figure 1 Structures of teixobactin 1 and teixobactin analogs; Arg^10-teixobactin 2, lipobactin 3, and Lys^10-farnesylbactin 4. Examples of most relevant MICs from the literature are shown above each structure. Yang H. et al. ([2016]), Girt et al. ([2018]), Zong et al. ([2018]) The End^10, Arg^10 and Lys^10 substitutions (red) and the lipid moieties of lipobactin 3 and farnesylbactin 4 (blue) are highlighted.

[6] = Figure 1, ref Yang H. et al. (2016), Girt et al. (2018), Zong et al. (2018)

Compound: CCCCCCCCCCCC(=O)N[C@H](C(=O)N[C@@H](CO)C(=O)N[C@H]1C(=O)N[C@@H](C)C(=O)N[C@@H](CCCNC(=N)N)C(=O)N[C@@H]([C@@H](C)CC)C(=O)O[C@H]1C)[C@@H](C)CC [Compound 3, lipobactin, reference compound] (Lauroyl-IS[dT]ARI; ester 3-C)
- MIC across a range of Gram-positive bacterial species [1]: 4 to 8 µg/mL
- MIC (S. epidermidis) [2]: 4 µg/mL (≈ 4.85 µM)
- MIC against S. epidermidis ATCC 14990 ([2]; reported MIC, ref Yang H. et al., 2016): 4 µg/mL (≈ 4.85 µM)
- MIC, S. aureus ATCC 29213 ([3]; ATCC 29213, 24 h): 8 µM (≈ 6.59 µg/mL)
- MIC, S. aureus ATCC 29213, converted to mass concentration ([3]; ATCC 29213, 24 h): ca. 6.5 μg/mL
- RP-HPLC column retention time tR [4]: 20.38 min
- Δt, retention time difference to lipobactin 3 [4]: 0 min

Compound: CCCC(=O)OCCSCCC(=O)N[C@H](C(=O)N[C@@H](CO)C(=O)N[C@H]1C(=O)N[C@@H](C)C(=O)N[C@@H](CCCNC(=N)N)C(=O)N[C@@H]([C@@H](C)CC)C(=O)O[C@H]1C)[C@@H](C)CC [Compound 8a] ([Mpa](Ethyl(2-butanoyloxy))IS[dT]ARI; ester 4-C)
- MIC, S. aureus ATCC 29213 ([3]; ATCC 29213, 24 h): > 128 µM
- RP-HPLC column retention time tR [4]: 14.98 min
- Hydrophobicity relative to lipobactin 3 as judged by RP-HPLC retention time [4]: more hydrophilic than 3
- Δt, retention time difference to lipobactin 3 [4]: -5.4 min

Compound: CCCCCC(=O)OCCSCCC(=O)N[C@H](C(=O)N[C@@H](CO)C(=O)N[C@H]1C(=O)N[C@@H](C)C(=O)N[C@@H](CCCNC(=N)N)C(=O)N[C@@H]([C@@H](C)CC)C(=O)O[C@H]1C)[C@@H](C)CC [Compound 8b] ([Mpa](X2)IS[dT]ARI; ester 4-C)
- MIC, S. aureus ATCC 29213 ([3]; ATCC 29213, 24 h): > 128 µM
- RP-HPLC column retention time tR [4]: 16.88 min
- Hydrophobicity relative to lipobactin 3 as judged by RP-HPLC retention time [4]: more hydrophilic than 3
- Δt, retention time difference to lipobactin 3 [4]: -3.5 min

Compound: CCCCCCCC(=O)OCCSCCC(=O)N[C@H](C(=O)N[C@@H](CO)C(=O)N[C@H]1C(=O)N[C@@H](C)C(=O)N[C@@H](CCCNC(=N)N)C(=O)N[C@@H]([C@@H](C)CC)C(=O)O[C@H]1C)[C@@H](C)CC [Compound 8c] ([Mpa](X3)IS[dT]ARI; ester 4-C)
- MIC, S. aureus ATCC 29213 ([3]; ATCC 29213, 24 h): > 128 µM
- RP-HPLC column retention time tR [4]: 18.89 min
- Δt, retention time difference to lipobactin 3 [4]: -1.5 min

Compound: CCCCCCCCCCCC(=O)OCCSCCC(=O)N[C@H](C(=O)N[C@@H](CO)C(=O)N[C@H]1C(=O)N[C@@H](C)C(=O)N[C@@H](CCCNC(=N)N)C(=O)N[C@@H]([C@@H](C)CC)C(=O)O[C@H]1C)[C@@H](C)CC [Compound 8d] ([Mpa](X1)IS[dT]ARI; ester 4-C)
- MIC, S. aureus ATCC 29213 ([3]; ATCC 29213, 24 h): > 128 µM
- RP-HPLC column retention time tR [4]: 23.21 min
- Hydrophobicity relative to lipobactin 3 as judged by RP-HPLC retention time [4]: more hydrophobic than 3
- Δt, retention time difference to lipobactin 3 [4]: +2.8 min

Compound: CCCCCCCCCCCCCCCC(=O)OCCSCCC(=O)N[C@H](C(=O)N[C@@H](CO)C(=O)N[C@H]1C(=O)N[C@@H](C)C(=O)N[C@@H](CCCNC(=N)N)C(=O)N[C@@H]([C@@H](C)CC)C(=O)O[C@H]1C)[C@@H](C)CC [Compound 8e] ([Mpa](Ethyl(2-palmitoyloxy))IS[dT]ARI; ester 4-C)
- MIC, S. aureus ATCC 29213 ([3]; ATCC 29213, 24 h): > 128 µM
- RP-HPLC column retention time tR [4]: 27.98 min
- Hydrophobicity relative to lipobactin 3 as judged by RP-HPLC retention time [4]: more hydrophobic than 3
- Δt, retention time difference to lipobactin 3 [4]: +7.6 min

Compound: CC[C@H](C)[C@H](NC(=O)CCSCCOC(=O)c1ccccc1)C(=O)N[C@@H](CO)C(=O)N[C@H]1C(=O)N[C@@H](C)C(=O)N[C@@H](CCCNC(=N)N)C(=O)N[C@@H]([C@@H](C)CC)C(=O)O[C@H]1C [Compound 8f] ([Mpa](Ethyl(2-OBz))IS[dT]ARI; ester 4-C)
- MIC, S. aureus ATCC 29213 ([3]; non-cation adjusted Mueller Hinton broth, two-fold dilution 128 to 0.0625 µM, ~5 x10^5 CFU/ml, 37 °C with shaking, 24 h, lowest concentration at which growth did not occur): > 128 µM
- RP-HPLC column retention time tR [4]: 15.93 min
- Δt, retention time difference to lipobactin 3 [4]: -4.5 min

Compound: L-Arg^10-teixobactin [Compound 2]
- MIC values across a number of Gram-positive bacterial species ([1]; Zong et al., 2018): 1 to 4 µg/mL
- MIC across a range of Gram-positive bacterial species [1]: 1 to 4 µg/mL
- MIC (S. epidermidis) [2]: 1 µg/mL
- MIC (MRSA) [5, 6]: 2 µg/mL

Compound: teixobactin [Compound 1]
- MIC (MRSA) [5, 6]: 0.25 µg/mL
- MIC (MRSA) ([5]; ref Ling et al., 2015): 0.25 µg/mL
